Reference: patent US9139557B2, “Carboxamide compounds and their use as calpain inhibitors” (Abbott GmbH & Co. KG, priority 2006, dated 2015)

Key:
Format in all cases: biochemical
cathepsin B = molecular target: T1, cathepsin B (Homo sapiens, UniProt P07858); assay: Cathepsin B enzyme inhibition in vitro (kinetic fluorescence assay); conditions: Ki(cathepsin B)/Ki(calpain) ratio
T1 construct: cathepsin B—isolated from human liver; purchased Calbiochem 219362; host or cells: human liver (tissue isolate)
Method: (§1) Testing for blockade of the corresponding enzymic activities was carried out by means of kinetic fluorescence assays (excitation 390 nm, emission 460 nm).
(§2) Apparent Ki values were calculated from the experimentally determined IC50 values by the Cheng-Prussoff relation assuming a reversible competitive enzyme inhibition. The Km values of the substrates used under the assay conditions indicated above were: 90 μM (Z-Phe-Arg-AMC, cathepsin B), 10 μM (Z-Gly-Pro-Arg-AMC, cathepsin K), 2 μM (Z-Phe-Arg-AMC, cathepsin L), and 30 μM (Z-Val-Val-Arg-AMC, cathepsin S).
(§3) The indicated Ki values are averages of the inhibition constants calculated on the basis of 2 to 4 independent dose-effect plots.
(§4) • 1. Calpain I: • 20 nM calpain-I—isolated from human erythrocytes (Calbiochem #208713), 100 μM Suc-Leu-Tyr-AMC (Bachem #1-1355) as substrate in buffer with 62 mM imidazole, 0.3 mM CaCl2, 0.10% CHAPS, 0.05% BSA, 1 mM DTT at pH 7.3 and room temperature. • 2. Cathepsin B: • 0.25 nM cathepsin B—isolated from human liver (Calbiochem #219362), 100 μM Z-Phe-Arg-AMC (Bachem #1-1160) as substrate 50 mM MES, 2 mM EDTA, 0.05% Brij 35, 2.5 mM L-cysteine, pH 6.0, room temperature. • 3. Cathepsin K: • 3 nM cathepsin K—activated from recombinant human procathepsin K from E. coli (Calbiochem #342001), 10 μM Z-Gly-Pro-Arg-AMC (Biomol #P-142) as substrate in 50 mM MES, 2 mM EDTA, 0.05% Brij 35, 2.5 mM L-cysteine, pH 6.0, room temperature. • 4. Cathepsin L: • 1 nM cathepsin L—isolated from human liver (Calbiochem #219402), 2 μM Z-Phe-Arg-AMC (Bachem #1-1160) as substrate in 50 mM MES, 2 mM EDTA, 0.05% Brij 35, 2.5 mM L-cysteine, pH 6.0, room temperature. • 5. Cathepsin S: • 0.5 nM recombinant human cathepsin S from E. coli (Calbiochem #219343), 20 μM Z-Val-Val-Arg-AMC (Bachem #1-1540) as substrate in 50 mM MES, 2 mM EDTA, 0.05% Brij 35, 2.5 mM L-cysteine, pH 6.0, room temperature.

cathepsin K = molecular target: T2, cathepsin K (Homo sapiens, UniProt P43235); assay: Cathepsin K enzyme inhibition in vitro (kinetic fluorescence assay); conditions: Ki(cathepsin K)/Ki(calpain) ratio
T2 construct: purchased Calbiochem 342001; host or cells: E. coli
T2 sequence (P43235 115-329): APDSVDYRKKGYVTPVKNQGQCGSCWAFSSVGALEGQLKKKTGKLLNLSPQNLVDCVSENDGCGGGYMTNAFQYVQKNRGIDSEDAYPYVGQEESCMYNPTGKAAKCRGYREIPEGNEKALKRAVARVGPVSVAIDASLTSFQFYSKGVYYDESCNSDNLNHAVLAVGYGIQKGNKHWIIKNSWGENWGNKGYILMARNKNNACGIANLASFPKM
Method: as §1, §2, §3, §4

cathepsin L = molecular target: T3, cathepsin L (Homo sapiens, UniProt P07711); assay: Cathepsin L enzyme inhibition in vitro (kinetic fluorescence assay); conditions: Ki(cathepsin L)/Ki(calpain) ratio
T3 construct: cathepsin L—isolated from human liver; purchased Calbiochem 219402; host or cells: human liver (tissue isolate)
Method: as §1, §2, §3, §4

cathepsin S = molecular target: T4, cathepsin S (Homo sapiens, UniProt P25774); assay: Cathepsin S enzyme inhibition in vitro (kinetic fluorescence assay); conditions: Ki(cathepsin S)/Ki(calpain) ratio
T4 construct: purchased Calbiochem 219343; host or cells: E. coli
Method: as §1, §2, §3, §4

T4 sequence (P25774 115-331): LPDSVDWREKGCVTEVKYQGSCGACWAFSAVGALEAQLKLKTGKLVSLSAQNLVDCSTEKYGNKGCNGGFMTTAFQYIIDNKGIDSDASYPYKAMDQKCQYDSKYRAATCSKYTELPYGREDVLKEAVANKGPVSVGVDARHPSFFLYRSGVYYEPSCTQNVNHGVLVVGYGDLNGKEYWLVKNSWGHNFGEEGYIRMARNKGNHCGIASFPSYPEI
T3 sequence (P07711 114-333): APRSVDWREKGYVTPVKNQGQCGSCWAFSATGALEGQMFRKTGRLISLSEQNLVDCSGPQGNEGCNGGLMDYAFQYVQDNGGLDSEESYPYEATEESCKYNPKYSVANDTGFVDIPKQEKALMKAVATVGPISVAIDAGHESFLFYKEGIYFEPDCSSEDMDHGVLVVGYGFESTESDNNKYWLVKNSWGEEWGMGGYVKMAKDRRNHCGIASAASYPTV

Compound	Sel cat. B (cathepsin B)	Sel cat. K (cathepsin K)	Sel cat. L (cathepsin L)	Sel cat. S (cathepsin S)
CCCCC(NC(=O)c1cc(Cl)cnc1-n1ccc(-c2ccccc2)n1)C(=O)C(N)=O (stereo not shown) [Example 28, N-{1-[Amino(oxo)acetyl]pentyl}-5-chloro-2-(3-phenyl-1H-pyrazol-1-yl)nicotinamide]	+ (+ means 10≦Ki(cathepsin B)/Ki(calpain)<30)	–	–	–
Cl.NC(=O)C(=O)C(Cc1ccccc1)NC(=O)c1cccnc1-n1ccc(-c2ccc(N3CCOCC3)cc2)n1 (stereo not shown) [Example 29, N-(3-Amino-1-benzyl-2,3-dioxopropyl)-2-[3-(4-morpholin-4-ylphenyl)-1H-pyrazol-1-yl]nicotinamide hydrochloride]	–	+ (+ means 10≦Ki(cathepsin K)/Ki(calpain)<30)	++ (++ means a Ki(cathepsin L)/Ki(calpain) ratio of ≧50)	++ (++ means a Ki(cathepsin S)/Ki(calpain) ratio of ≧100)
CC(C)CC(NC(=O)c1cc(Cl)cnc1-n1ccc(-c2ccccc2)n1)C(=O)C(N)=O (stereo not shown) [Example 32, N-{1-[Amino(oxo)acetyl]-3-methylbutyl}-5-chloro-2-(3-phenyl-1H-pyrazol-1-yl)nicotinamide]	+ (+ means 10≦Ki(cathepsin B)/Ki(calpain)<30)	–	–	–
CCCCC(NC(=O)c1cccnc1-n1ccc(-c2ccc(N3CCOCC3)cc2)n1)C(=O)C(N)=O (stereo not shown) [Example 33, N-{1-[Amino(oxo)acetyl]pentyl}-2-[3-(4-morpholin-4-ylphenyl)-1H-pyrazol-1-yl]nicotinamide]	+ (+ means 10≦Ki(cathepsin B)/Ki(calpain)<30)	–	–	+ (+ means 50≦Ki(cathepsin S)/Ki(calpain)<100)
NC(=O)C(=O)C(Cc1cccs1)NC(=O)c1cccnc1-n1ccc(-c2ccccc2)n1 (stereo not shown) [Example 40, N-[3-Amino-2,3-dioxo-1-(2-thienylmethyl)propyl]-2-(3-phenyl-1H-pyrazol-1-yl)pyridine-3-carboxamide]	+ (+ means 10≦Ki(cathepsin B)/Ki(calpain)<30)	–	++ (++ means a Ki(cathepsin L)/Ki(calpain) ratio of ≧50)	++ (++ means a Ki(cathepsin S)/Ki(calpain) ratio of ≧100)
Cc1cc(-c2ccccc2)nn1-c1ncccc1C(=O)NC(Cc1ccccc1)C(=O)C(N)=O (stereo not shown) [Example 61, N-(3-Amino-1-benzyl-2,3-dioxopropyl)-2-(5-methyl-3-phenyl-1H-pyrazol-1-yl)nicotinamide]	+ (+ means 10≦Ki(cathepsin B)/Ki(calpain)<30)	–	–	++ (++ means a Ki(cathepsin S)/Ki(calpain) ratio of ≧100)
NC(=O)C(=O)C(Cc1ccccc1)NC(=O)c1cccnc1-n1ccc(-c2ccc(N3CCCCC3)cc2)n1 (stereo not shown) [Example 64, N-(3-Amino-1-benzyl-2,3-dioxopropyl)-2-[3-(4-piperidin-1-ylphenyl)-1H-pyrazol-1-yl]nicotinamide]	+ (+ means 10≦Ki(cathepsin B)/Ki(calpain)<30)	–	–	++ (++ means a Ki(cathepsin S)/Ki(calpain) ratio of ≧100)
NC(=O)C(=O)C(CC1CCCCC1)NC(=O)c1cccnc1-n1ccc(-c2ccccc2)n1 (stereo not shown) [Example 66, N-[3-Amino-1-(cyclohexylmethyl)-2,3-dioxopropyl]-2-(3-phenyl-1H-pyrazol-1-yl)nicotinamide]	–	+ (+ means 10≦Ki(cathepsin K)/Ki(calpain)<30)	+ (+ means 30≦Ki(cathepsin L)/Ki(calpain)<50)	++ (++ means a Ki(cathepsin S)/Ki(calpain) ratio of ≧100)
CN1CCN(c2ccc(-c3ccn(-c4ncccc4C(=O)NC(Cc4ccccc4)C(=O)C(N)=O)n3)cc2)CC1 (stereo not shown) [Example 68, N-(3-Amino-1-benzyl-2,3-dioxopropyl)-2-{3-[4-(4-methylpiperazin-1-yl)phenyl]-1H-pyrazol-1-yl}nicotinamide]	–	+ (+ means 10≦Ki(cathepsin K)/Ki(calpain)<30)	–	++ (++ means a Ki(cathepsin S)/Ki(calpain) ratio of ≧100)
Cc1cn(-c2ncccc2C(=O)NC(Cc2ccccc2)C(=O)C(N)=O)nc1-c1ccccc1 (stereo not shown) [Example 84, N-(3-Amino-1-benzyl-2,3-dioxopropyl)-2-(4-methyl-3-phenyl-1H-pyrazol-1-yl)nicotinamide]	+ (+ means 10≦Ki(cathepsin B)/Ki(calpain)<30)	–	++ (++ means a Ki(cathepsin L)/Ki(calpain) ratio of ≧50)	++ (++ means a Ki(cathepsin S)/Ki(calpain) ratio of ≧100)
NC(=O)C(=O)C(Cc1ccc(Br)cc1)NC(=O)c1cccnc1-n1ccc(-c2ccccc2)n1 (stereo not shown) [Example 122, N-{3-Amino-1-[(4-bromophenyl)methyl]-2,3-dioxopropyl}-2-(3-phenyl-1H-pyrazol-1-yl)pyridine-3-carboxamide]	++ (++ means a Ki(cathepsin B)/Ki(calpain) ratio of ≧30)	–	++ (++ means a Ki(cathepsin L)/Ki(calpain) ratio of ≧50)	++ (++ means a Ki(cathepsin S)/Ki(calpain) ratio of ≧100)
CC(C)c1ccc2c(c1)-c1nn(-c3ncccc3C(=O)NC(Cc3ccccc3)C(=O)C(N)=O)cc1CO2 (stereo not shown) [Example 144, N-[3-Amino-2,3-dioxo-1-(phenylmethyl)propyl]-2-[8-(1-methylethyl)chromeno[4,3-c]pyrazol-2(4H)-yl]pyridine-3-carboxamide]	+ (+ means 10≦Ki(cathepsin B)/Ki(calpain)<30)	–	++ (++ means a Ki(cathepsin L)/Ki(calpain) ratio of ≧50)	++ (++ means a Ki(cathepsin S)/Ki(calpain) ratio of ≧100)
NC(=O)C(=O)C(Cc1ccccc1)NC(=O)c1cccnc1-n1ccc(-c2cccc3cnccc23)n1 (stereo not shown) [Example 156, N-[3-Amino-2,3-dioxo-1-(phenylmethyl)propyl]-2-(3-isoquinolin-5-yl-1H-pyrazol-1-yl)pyridine-3-carboxamide]	+ (+ means 10≦Ki(cathepsin B)/Ki(calpain)<30)	–	+ (+ means 30≦Ki(cathepsin L)/Ki(calpain)<50)	++ (++ means a Ki(cathepsin S)/Ki(calpain) ratio of ≧100)
NC(=O)C(=O)C(Cc1ccccc1)NC(=O)c1cccnc1-n1cc(COc2ccccc2)c(-c2ccc(F)cc2)n1 (stereo not shown) [Example 179, N-[3-Amino-2,3-dioxo-1-(phenylmethyl)propyl]-2-{3-(4-fluorophenyl)-4-[(phenyloxy)methyl]-1H-pyrazol-1-yl}pyridine-3-carboxamide]	–	–	+ (+ means 30≦Ki(cathepsin L)/Ki(calpain)<50)	++ (++ means a Ki(cathepsin S)/Ki(calpain) ratio of ≧100)
CS(=O)(=O)NCc1cn(-c2ncccc2C(=O)NC(Cc2ccccc2)C(=O)C(N)=O)nc1-c1ccc(F)cc1 (stereo not shown) [Example 187, N-[3-Amino-2,3-dioxo-1-(phenylmethyl)propyl]-2-[3-(4-fluorophenyl)-4-{[(methylsulfonyl)amino]methyl}-1H-pyrazol-1-yl]pyridine-3-carboxamide]	–	–	+ (+ means 30≦Ki(cathepsin L)/Ki(calpain)<50)	++ (++ means a Ki(cathepsin S)/Ki(calpain) ratio of ≧100)
N#Cc1cnc(-n2ccc(-c3ccccc3F)n2)c(C(=O)NC(Cc2ccccc2)C(=O)C(N)=O)c1 (stereo not shown) [Example 188, N-[3-Amino-2,3-dioxo-1-(phenylmethyl)propyl]-5-cyano-2-[3-(2-fluorophenyl)-1H-pyrazol-1-yl]pyridine-3-carboxamide]	–	++ (++ means a Ki(cathepsin K)/Ki(calpain) ratio of ≧30)	++ (++ means a Ki(cathepsin L)/Ki(calpain) ratio of ≧50)	–
N-{3-Amino-1-[(4-fluorophenyl)methyl]-2,3-dioxopropyl}-2-[3-(2,3-dichlorophenyl)-1H-pyrazol-1-yl]pyridine-3-carboxamide [Example 161]	+ (+ means 10≦Ki(cathepsin B)/Ki(calpain)<30)	–	+ (+ means 30≦Ki(cathepsin L)/Ki(calpain)<50)	++ (++ means a Ki(cathepsin S)/Ki(calpain) ratio of ≧100)
